The target in test [1] is Serine/threonine-protein kinase VRK2 (Homo sapiens) (UniProt Q86Y07). As to the kind of experiment: Inhibition of VRK2 Lys2 labeling site in human A-375 cells at 0.5 uM by KiNativ Profiling analysis relative to control. In kind it is cell-based.
In test [2] the target is Mast/stem cell growth factor receptor Kit (Homo sapiens) (UniProt P10721). As to the kind of experiment: Inhibition of KIT (unknown origin) at 1 uM by Ambit Kinomescan binding assay relative to control; values are per cent of control.
For test [3], the target named is Eukaryotic translation initiation factor 2-alpha kinase 1 (Homo sapiens) (UniProt Q9BQI3). Put plainly: Inhibition of EIF2AK1 (unknown origin) at 1 uM by Ambit Kinomescan binding assay relative to control; values are per cent of control.
Another test concerns MEF. Put plainly: Inhibition of IL-1alpha induced JNK1/2 phosphorylation level in mouse MEF cells preincubated for 1 hr followed by IL-1 alpha stimulation and measured after 30 mins by Western blot analysis. It counts as functional, cell-based. Conditions: dose 0.01-10 µM. Background: A western blot detects proteins with antibodies after separation by electrophoresis.
Test [4] has as its target AP2-associated protein kinase 1 (Homo sapiens) (UniProt Q2M2I8). Put plainly: Inhibition of AAK1 (unknown origin) at 10 uM by Ambit Kinomescan binding assay.
In test [5] the target is Atypical kinase COQ8B, mitochondrial (Homo sapiens) (UniProt Q96D53). As to the kind of experiment: Inhibition of ADCK4 (unknown origin) at 10 uM by Ambit Kinomescan binding assay.
Test [6] has as its target Serine/threonine-protein kinase DCLK3 (Homo sapiens) (UniProt Q9C098). As to the kind of experiment: Inhibition of DCAMKL3 (unknown origin) at 10 uM by Ambit Kinomescan binding assay.
Test [7] addresses Interleukin-1 receptor-associated kinase 3 (Homo sapiens) (UniProt Q9Y616). Put plainly: Inhibition of IRAK3 (unknown origin) at 10 uM by Ambit Kinomescan binding assay.
For test [8], the target named is Serine/threonine-protein kinase MARK2 (Homo sapiens) (UniProt Q7KZI7). As to the kind of experiment: Inhibition of MARK2 (unknown origin) at 10 uM by Ambit Kinomescan binding assay.
Test [9] addresses Mitogen-activated protein kinase kinase kinase kinase 4 (Homo sapiens, UniProt O95819). As to the kind of experiment: Inhibition of ZC1/HGK Lys2 labeling site in human A-375 cells at 5 uM by KiNativ Profiling analysis relative to control. In kind it is cell-based.
Test [10] addresses MAST1/MAST2 (Homo sapiens) (UniProt Q9Y2H9+Q6P0Q8). Put plainly: Inhibition of MAST1/2 K2 labeling site in human Huh-7 cells at 10 uM by KiNativ Profiling analysis relative to control. In kind it is cell-based.
Test [11] deals with Phosphatidylinositol 4,5-bisphosphate 3-kinase catalytic subunit beta isoform (Homo sapiens) (UniProt P42338). Put plainly: Inhibition of PIK3CB ATP labeling site in human Huh-7 cells at 10 uM by KiNativ Profiling analysis relative to control. In kind it is cell-based.
For test [12], the target named is NT-3 growth factor receptor (Homo sapiens) (UniProt Q16288). As to the kind of experiment: Inhibition of TRKC (unknown origin) at 10 uM by Ambit Kinomescan binding assay relative to control; values are per cent of control.
Test [13] has as its target Focal adhesion kinase 1 (Homo sapiens) (UniProt Q05397). Put plainly: Inhibition of FAK ACT labeling site in human Huh-7 cell lysate at 1 uM by KiNativ Profiling analysis relative to control. It counts as subcellular.
For test [14], the target named is T1, Scaffold protein ILK (Homo sapiens) (UniProt Q13418).
T1 sequence (whole entry): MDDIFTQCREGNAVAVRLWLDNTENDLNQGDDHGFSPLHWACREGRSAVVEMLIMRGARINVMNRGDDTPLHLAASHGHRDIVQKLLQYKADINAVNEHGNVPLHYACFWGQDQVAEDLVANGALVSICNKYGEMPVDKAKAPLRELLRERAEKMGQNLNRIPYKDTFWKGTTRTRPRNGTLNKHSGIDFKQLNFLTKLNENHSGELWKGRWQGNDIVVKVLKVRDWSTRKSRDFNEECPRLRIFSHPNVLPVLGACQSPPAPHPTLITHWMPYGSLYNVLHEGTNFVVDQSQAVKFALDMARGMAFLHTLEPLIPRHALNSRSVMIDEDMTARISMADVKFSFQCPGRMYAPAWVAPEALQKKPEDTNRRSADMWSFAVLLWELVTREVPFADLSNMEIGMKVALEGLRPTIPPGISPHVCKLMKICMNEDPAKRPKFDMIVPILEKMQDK
As to the kind of experiment: Inhibition of ILK Lys1 labeling site in human Huh-7 cell lysate at 1 uM by KiNativ Profiling analysis relative to control. It counts as subcellular.

The target of test [15] is T2, Phosphatidylinositol 5-phosphate 4-kinase type-2 beta (Homo sapiens) (UniProt P78356).
T2 sequence (whole entry): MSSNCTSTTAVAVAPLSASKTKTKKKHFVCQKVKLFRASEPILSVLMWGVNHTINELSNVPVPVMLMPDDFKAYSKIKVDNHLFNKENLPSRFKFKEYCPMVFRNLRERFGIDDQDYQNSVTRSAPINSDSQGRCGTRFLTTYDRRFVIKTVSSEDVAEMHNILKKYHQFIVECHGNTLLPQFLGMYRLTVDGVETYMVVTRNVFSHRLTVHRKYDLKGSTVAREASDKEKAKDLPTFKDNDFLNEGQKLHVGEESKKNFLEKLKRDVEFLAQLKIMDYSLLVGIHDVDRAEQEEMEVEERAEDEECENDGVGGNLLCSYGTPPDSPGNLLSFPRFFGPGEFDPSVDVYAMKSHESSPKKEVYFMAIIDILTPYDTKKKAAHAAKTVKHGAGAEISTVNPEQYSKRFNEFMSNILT
As to the kind of experiment: Inhibition of PIP4K2B ATP labeling site harbouring TVKHGAGAEISTVNPEQYSK in human Huh-7 cell lysate at 1 uM by KiNativ Profiling analysis relative to control. In kind it is subcellular.

The target of test [16] is Ribosomal protein S6 kinase alpha-3 (Homo sapiens) (UniProt P51812). As to the kind of experiment: Inhibition of RSK2 domain2 Lys2 labeling site DLKPSNILYVDESGNPESIR in human Huh-7 cell lysate at 1 uM by KiNativ Profiling analysis relative to control. It counts as subcellular.
Test [17] addresses Mitogen-activated protein kinase 8 (Homo sapiens, UniProt P45983). As to the kind of experiment: Inhibition of JNK1 Lys2 labeling site in human Huh-7 cells at 1 uM by KiNativ Profiling analysis relative to control. In kind it is cell-based.
The target of test [18] is Microtubule-associated serine/threonine-protein kinase 1 (Homo sapiens) (UniProt Q9Y2H9). As to the kind of experiment: Inhibition of MAST1 Lys2 labeling site in human Huh-7 cell lysate at 1 uM by KiNativ Profiling analysis relative to control.

Calls of active or inactive are those of the source. No cut-off for these calls is given here.

Mitogen-activated protein kinase 8, sequence (P45983 whole entry): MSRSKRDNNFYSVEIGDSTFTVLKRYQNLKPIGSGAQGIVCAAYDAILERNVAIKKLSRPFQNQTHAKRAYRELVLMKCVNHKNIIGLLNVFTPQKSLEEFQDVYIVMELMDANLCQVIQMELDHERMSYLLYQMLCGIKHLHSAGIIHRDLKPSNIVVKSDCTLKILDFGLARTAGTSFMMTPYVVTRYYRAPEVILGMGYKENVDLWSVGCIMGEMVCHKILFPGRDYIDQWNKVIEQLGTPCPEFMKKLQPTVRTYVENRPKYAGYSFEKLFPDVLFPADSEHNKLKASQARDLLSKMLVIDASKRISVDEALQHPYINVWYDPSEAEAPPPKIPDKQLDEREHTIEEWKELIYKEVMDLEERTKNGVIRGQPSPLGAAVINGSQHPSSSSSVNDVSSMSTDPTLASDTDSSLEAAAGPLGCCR
Focal adhesion kinase 1 (Homo sapiens), sequence (Q05397 2-1052 limits assumed): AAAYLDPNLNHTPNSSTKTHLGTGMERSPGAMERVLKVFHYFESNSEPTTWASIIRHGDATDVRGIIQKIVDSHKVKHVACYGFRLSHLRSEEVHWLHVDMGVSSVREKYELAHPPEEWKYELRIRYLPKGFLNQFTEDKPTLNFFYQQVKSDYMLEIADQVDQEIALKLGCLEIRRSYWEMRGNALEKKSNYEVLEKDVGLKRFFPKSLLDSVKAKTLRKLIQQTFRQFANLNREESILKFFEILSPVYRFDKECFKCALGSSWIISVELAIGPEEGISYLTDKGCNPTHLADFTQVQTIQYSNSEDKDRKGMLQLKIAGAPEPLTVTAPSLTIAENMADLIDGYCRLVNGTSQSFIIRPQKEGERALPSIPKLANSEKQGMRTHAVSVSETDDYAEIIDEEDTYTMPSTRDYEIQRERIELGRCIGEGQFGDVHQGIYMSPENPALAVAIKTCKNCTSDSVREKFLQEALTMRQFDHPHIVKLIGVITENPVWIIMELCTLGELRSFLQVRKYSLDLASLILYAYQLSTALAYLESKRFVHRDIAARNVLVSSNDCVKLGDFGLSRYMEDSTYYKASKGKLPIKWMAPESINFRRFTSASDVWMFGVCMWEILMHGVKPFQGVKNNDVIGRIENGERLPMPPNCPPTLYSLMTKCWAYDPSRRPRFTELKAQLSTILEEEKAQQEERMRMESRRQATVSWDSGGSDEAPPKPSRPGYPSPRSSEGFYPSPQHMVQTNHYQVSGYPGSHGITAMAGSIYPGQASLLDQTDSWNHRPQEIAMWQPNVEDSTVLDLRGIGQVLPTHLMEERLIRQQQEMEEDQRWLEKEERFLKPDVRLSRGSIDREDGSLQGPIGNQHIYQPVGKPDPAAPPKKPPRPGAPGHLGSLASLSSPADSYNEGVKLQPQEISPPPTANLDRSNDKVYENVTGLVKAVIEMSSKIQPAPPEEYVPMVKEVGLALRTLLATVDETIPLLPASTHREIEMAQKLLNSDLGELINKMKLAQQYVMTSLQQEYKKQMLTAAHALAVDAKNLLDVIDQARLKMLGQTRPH
Serine/threonine-protein kinase DCLK3 (Homo sapiens), sequence (Q9C098 whole entry): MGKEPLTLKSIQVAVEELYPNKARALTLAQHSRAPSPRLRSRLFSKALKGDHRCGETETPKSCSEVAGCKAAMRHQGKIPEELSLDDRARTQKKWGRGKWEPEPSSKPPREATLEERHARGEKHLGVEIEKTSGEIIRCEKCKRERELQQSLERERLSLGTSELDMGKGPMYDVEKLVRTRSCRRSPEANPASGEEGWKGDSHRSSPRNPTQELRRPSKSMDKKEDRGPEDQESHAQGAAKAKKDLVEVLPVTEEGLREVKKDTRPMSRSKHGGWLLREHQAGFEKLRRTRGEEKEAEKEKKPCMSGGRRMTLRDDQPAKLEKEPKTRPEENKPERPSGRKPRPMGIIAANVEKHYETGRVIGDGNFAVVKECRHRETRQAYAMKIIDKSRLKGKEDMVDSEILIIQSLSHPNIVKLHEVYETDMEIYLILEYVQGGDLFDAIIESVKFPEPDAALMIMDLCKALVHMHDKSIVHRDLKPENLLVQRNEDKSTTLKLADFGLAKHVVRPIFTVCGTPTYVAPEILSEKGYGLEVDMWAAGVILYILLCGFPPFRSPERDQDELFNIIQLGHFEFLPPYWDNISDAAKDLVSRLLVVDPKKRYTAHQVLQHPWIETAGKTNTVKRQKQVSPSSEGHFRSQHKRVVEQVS
Mast/stem cell growth factor receptor Kit (Homo sapiens), sequence (P10721 whole entry): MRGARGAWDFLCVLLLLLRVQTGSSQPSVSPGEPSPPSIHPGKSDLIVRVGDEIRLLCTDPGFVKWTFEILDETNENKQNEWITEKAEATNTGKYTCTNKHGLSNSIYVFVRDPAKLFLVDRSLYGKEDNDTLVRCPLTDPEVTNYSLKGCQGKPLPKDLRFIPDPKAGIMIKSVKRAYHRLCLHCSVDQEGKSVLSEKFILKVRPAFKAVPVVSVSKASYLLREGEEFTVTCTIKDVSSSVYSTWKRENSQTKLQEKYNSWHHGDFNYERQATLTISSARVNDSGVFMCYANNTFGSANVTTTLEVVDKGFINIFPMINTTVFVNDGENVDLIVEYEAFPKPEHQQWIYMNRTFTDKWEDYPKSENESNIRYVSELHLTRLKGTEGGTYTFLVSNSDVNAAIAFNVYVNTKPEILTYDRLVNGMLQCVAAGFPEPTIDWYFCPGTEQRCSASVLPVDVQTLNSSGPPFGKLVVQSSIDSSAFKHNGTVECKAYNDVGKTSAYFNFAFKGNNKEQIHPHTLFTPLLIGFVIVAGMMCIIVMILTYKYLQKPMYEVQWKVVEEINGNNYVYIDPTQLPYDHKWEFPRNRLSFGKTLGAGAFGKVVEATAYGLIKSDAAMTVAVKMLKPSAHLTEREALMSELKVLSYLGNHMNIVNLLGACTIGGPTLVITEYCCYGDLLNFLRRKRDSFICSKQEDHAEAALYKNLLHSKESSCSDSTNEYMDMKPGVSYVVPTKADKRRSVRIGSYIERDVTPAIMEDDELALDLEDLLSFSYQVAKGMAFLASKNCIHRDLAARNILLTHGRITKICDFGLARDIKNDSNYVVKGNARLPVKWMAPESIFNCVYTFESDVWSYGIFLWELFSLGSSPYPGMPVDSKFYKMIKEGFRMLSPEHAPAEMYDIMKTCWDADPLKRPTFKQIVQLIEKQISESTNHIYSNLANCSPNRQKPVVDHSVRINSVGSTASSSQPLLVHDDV
Serine/threonine-protein kinase MARK2 (Homo sapiens), sequence (Q7KZI7 whole entry): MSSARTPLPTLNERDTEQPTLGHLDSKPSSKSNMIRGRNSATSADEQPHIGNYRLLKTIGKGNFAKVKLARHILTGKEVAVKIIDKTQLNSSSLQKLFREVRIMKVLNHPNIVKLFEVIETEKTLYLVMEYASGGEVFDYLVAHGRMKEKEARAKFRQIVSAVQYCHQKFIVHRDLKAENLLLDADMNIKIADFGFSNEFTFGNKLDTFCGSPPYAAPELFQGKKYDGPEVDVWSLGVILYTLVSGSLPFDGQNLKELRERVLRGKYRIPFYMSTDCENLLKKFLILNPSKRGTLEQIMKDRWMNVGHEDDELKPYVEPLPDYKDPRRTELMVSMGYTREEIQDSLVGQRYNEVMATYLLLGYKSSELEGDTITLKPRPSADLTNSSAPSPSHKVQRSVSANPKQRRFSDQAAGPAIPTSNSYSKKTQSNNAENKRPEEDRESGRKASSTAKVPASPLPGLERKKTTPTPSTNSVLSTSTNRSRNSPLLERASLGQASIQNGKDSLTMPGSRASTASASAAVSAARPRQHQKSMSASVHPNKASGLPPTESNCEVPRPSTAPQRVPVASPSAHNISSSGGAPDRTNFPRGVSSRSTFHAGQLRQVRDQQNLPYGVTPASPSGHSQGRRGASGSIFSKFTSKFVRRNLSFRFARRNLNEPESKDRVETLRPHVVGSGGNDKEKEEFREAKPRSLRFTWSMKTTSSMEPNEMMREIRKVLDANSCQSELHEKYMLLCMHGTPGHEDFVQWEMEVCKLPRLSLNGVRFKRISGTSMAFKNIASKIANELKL
Interleukin-1 receptor-associated kinase 3 (Homo sapiens), sequence (Q9Y616 whole entry): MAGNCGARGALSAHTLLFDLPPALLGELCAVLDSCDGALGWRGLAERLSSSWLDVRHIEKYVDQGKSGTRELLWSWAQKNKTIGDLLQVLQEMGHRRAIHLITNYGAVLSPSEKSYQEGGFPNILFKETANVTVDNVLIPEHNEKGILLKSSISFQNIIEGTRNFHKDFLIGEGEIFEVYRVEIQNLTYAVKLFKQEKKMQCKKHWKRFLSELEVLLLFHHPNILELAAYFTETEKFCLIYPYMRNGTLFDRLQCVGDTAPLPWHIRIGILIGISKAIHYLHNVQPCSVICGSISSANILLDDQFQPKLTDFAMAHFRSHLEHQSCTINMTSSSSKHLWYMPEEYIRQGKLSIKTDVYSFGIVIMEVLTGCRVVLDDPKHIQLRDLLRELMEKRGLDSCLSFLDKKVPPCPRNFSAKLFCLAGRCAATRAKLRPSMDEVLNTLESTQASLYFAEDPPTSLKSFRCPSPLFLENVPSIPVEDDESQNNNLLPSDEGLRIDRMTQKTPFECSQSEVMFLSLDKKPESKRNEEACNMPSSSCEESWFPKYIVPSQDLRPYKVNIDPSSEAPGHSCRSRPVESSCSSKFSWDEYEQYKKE
Atypical kinase COQ8B, mitochondrial (Homo sapiens), sequence (Q96D53 whole entry): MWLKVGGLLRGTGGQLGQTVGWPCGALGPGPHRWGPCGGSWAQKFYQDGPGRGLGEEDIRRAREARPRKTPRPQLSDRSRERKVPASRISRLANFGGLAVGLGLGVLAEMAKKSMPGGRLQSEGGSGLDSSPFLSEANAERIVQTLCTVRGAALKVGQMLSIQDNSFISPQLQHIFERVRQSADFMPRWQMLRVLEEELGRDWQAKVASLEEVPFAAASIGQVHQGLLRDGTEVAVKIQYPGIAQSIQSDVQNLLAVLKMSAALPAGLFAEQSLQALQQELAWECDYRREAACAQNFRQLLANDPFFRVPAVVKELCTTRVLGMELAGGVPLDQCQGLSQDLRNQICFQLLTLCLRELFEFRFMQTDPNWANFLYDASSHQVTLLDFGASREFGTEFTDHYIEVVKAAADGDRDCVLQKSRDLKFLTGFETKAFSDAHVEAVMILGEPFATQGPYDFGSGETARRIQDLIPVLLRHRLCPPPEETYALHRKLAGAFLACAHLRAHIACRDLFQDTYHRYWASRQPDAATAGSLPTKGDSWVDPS

Usually inhibition stands for the relative decrease from the control value, in per cent. The residual activity is the activity still measured, relative to the control. Higher therefore signals much activity left. `CCN1CCN(Cc2ccc(NC(=O)c3ccc(C)c(/C=C/c4cnc5[nH]ccc5c4OC)c3)cc2C(F)(F)F)CC1`: the inhibition in [1] stood at 28.5%. Moreover, the residual activity in test [2] was 0.3%; in test [3], 100%.
As for `CCN1CCN(Cc2ccc(NC(=O)c3ccc(C)c(Oc4ccnc5[nH]ccc45)c3)cc2C(F)(F)F)CC1`, the inhibition entry in the test with MEF is “Dose-Dependent Effect”; in test [9], 92.7%; in test [10] it was 17.6%. Further, the inhibition result in test [4], in [5], in test [6], in [7], in test [8] and in test [11] was “inactive” throughout. This compound registered a residual activity in test [12] of 3.8%.
`CNc1cc(Oc2cc(C(=O)Nc3cc(N4CCN(C)CC4)cc(C(F)(F)F)c3)ccc2C)ncn1`: the inhibition is 16% in [13]; -6.9% in [14]; -5.4% in test [15]; 0.2% in test [16]; 14.5% in test [17]; 7.2% in test [18].
